Assay [1] has as its target T1, purified human TDO enzyme (Homo sapiens, UniProt P48775).
T1 construct: 6xHis (N); made in house; host or cells: Escherichia coli BL21 (DE3) (pET 28a vector)
The assay can be described thus: TDO inhibition assay by the spectrometric method. In kind it is biochemical. To be noted: spectrophotometric. The procedure:
Both IDO1 and TDO inhibition assays were performed according to the reported procedures[26]–[30],[50],[51]. The solubility of the compounds in water was either moderate or poor. […] In the assay system, the minimum and maximum amount of DMSO was 0.02% and 2%, respectively. The standard reaction mixture (500 μL) containing KPB (100 mM, pH 6.5 for IDO1 enzyme and 50 mM, pH 8.0 for TDO enzyme), sodium ascorbate (20 mM), methylene blue (10 µM), catalase (240 nM, from bovine liver), L-Trp (150 µM), purified enzyme (40 nM for IDO1 and 25 nM for TDO), DMSO (0.05%, v/v), Triton-X 100 (0.01%, v/v) and inhibitors was incubated at 37 °C for 1 hour. The concentration of the inhibitors was varied from 100 µM to 32 nM by serial dilution technique. Then, the reaction was quenched with 100 µL of 30% (w/v) trichloroacetic acid and was incubated for further 15 minutes at 65 °C. After that, 2% (w/v) pDMAB was used to quantify the amount of kynurenine formation. The absorbance of the reaction mixture was recorded by UV-Vis spectrophotometer at 480 nm. The Km = 59.76 µM and Kcat = 6.18 sec^−1.

Assay [2] concerns the target T2, IDO1 (Homo sapiens, UniProt P14902). The assay can be described thus: Cellular IDO1 activity assay in IFN-γ induced MDA-MB-231 cells. In kind it is cell-based. Also on record: induce the expression of the native IDO1 enzyme from its mRNA in the MDA-MB-231 cells; endogenous in cells; host or cells: MDA-MB-231 cells induced with human IFN-γ (50 ng/mL). To be noted: IDO1 expression induced by human IFN-γ (50 ng/mL); mean of three. The procedure: The cellular enzyme activity assay was performed according to the reported procedure with minor modifications[19],[27]–[30],[33],[54]. Briefly, MDA-MB-231 breast cancer cells were selected for this assay because of the presence of IDO1 mRNA in this cell line. First, cells were grown in DMEM/F12 complete media overnight. Then different concentration of human interferon-gamma (IFN-γ) (from 5–1000 ng/mL) was added to it and incubated for 48 hours. This treatment is reported to allow over-expression of IDO1 enzyme in MDA-MB-231 cells. […] Sterile cell-culture grade PBS was used to wash the cells by centrifugation technique. Then, the pellet was lysed in 10 mM HEPES buffer by passing through a sterile syringe. The lysate was used for standard IDO1 assay as mentioned earlier. The relative amount of N-formylkynurenine generated in the presence of the different concentration of IFN-γ was used to optimize the required concentration of IFN-γ for the IDO1 inhibition assay. […] Cells stimulated with IFN-γ alone were used as negative control, while cells stimulated with L-Trp without compound served as positive control. The cells were washed with sterile cell culture grade PBS and lysed in 10 mM HEPES buffer by sterile syringe. The lysate was used for standard IDO1 assay, as mentioned earlier, and the extent of IDO1 enzyme inhibition was determined for the selected compounds.

In assay [3] the target is T2, IDO1. The assay can be described thus: Kynurenine assay by HPLC analysis, IDO1. In kind it is biochemical. Also on record: made in house; host or cells: Escherichia coli M15 (pQE30 vector with pREP4 plasmid). The settings on record: for IC50: HPLC based IDO1 inhibition assay; for % Of inhibition for IDO1 enzyme / inhibition at 0.032 µM / inhibition at 0.16 µM / inhibition at 0.8 µM / inhibition at 4 µM / inhibition at 20 µM / inhibition at 100 µM: HPLC. The procedure:
(§1) HPLC based IDO1, and TDO inhibition assays were performed according to the earlier reported procedure[19],[27]–[30]. The reaction mixture (250 µL) contained KPB (100 mM, pH 6.5 for IDO1 and 50 mM, pH 8.0 for TDO), sodium ascorbate (20 mM), methylene blue (10 µM), catalase (240 nM, from bovine liver, Sigma), L-Trp (150 µM), purified enzyme (40 nM for IDO1 and 25 nM for TDO), DMSO (0.05%, v/v), Triton-X 100 (0.01%, v/v) and inhibitors. The concentration of the compound was varied from 100 µM to 32 nM by serial dilution. The mixture was incubated at 37 °C for 1 hour in the absence and presence of the synthesized compounds. The reaction was then quenched using 50 µL of 30% (w/v) trichloroacetic acid and incubated at 65 °C for additional 15 minutes to allow complete hydrolysis of N-formylkynurenine to kynurenine. After that, the mixture was centrifuged at 10,000 rpm for 10 minutes, and 100 µL of clear solution was transferred to another tube for HPLC analysis. Then, 20 µL of the reaction mixture was then injected through Ascentis® express C18, 2.7 µm HPLC column with a flow rate of 0.5 mL/minute of the mobile phase containing 50% sodium citrate buffer (40 mM, pH 2.25) and 50% methanol (v/v) with 400 µM SDS. The area under the curve at 365 nm chromatogram corresponding to the kynurenine formation was recorded, and % of inhibition was calculated using standard curve prepared with pure kynurenine (from Sigma) under similar experimental conditions.

Assay [4] deals with T3, purified human IDO1 enzyme (Homo sapiens, UniProt P14902).
T3 construct: made in house; host or cells: Escherichia coli M15 (pQE30 vector with pREP4 plasmid)
The assay can be described thus: IDO1 inhibition assay by the spectrometric method (pDMAB). To be noted: for IC50: purified human IDO1, spectrophotometric, mean of three independent assays, read-out: hIDO1 IC50; for fold stronger IDO1 inhibitory activity than 1a: in comparison with lead compound 1a. In kind it is biochemical. The procedure:
Both IDO1 and TDO inhibition assays were performed according to the reported procedures[26]–[30],[50],[51]. […] In the assay system, the minimum and maximum amount of DMSO was 0.02% and 2%, respectively. […] The concentration of the inhibitors was varied from 100 µM to 32 nM by serial dilution technique. Then, the reaction was quenched with 100 µL of 30% (w/v) trichloroacetic acid and was incubated for further 15 minutes at 65 °C. After that, 2% (w/v) pDMAB was used to quantify the amount of kynurenine formation. The absorbance of the reaction mixture was recorded by UV-Vis spectrophotometer at 480 nm.

Assay [5] has as its target T4, TDO enzyme (Homo sapiens, UniProt P48775).
T4 construct: 6xHis (N); made in house; host or cells: Escherichia coli BL21 (DE3) (pET 28a vector)
Nature of the assay: HPLC based TDO inhibition assay. In kind it is biochemical. As for the experimental part: as §1

T3 sequence (P14902 whole entry): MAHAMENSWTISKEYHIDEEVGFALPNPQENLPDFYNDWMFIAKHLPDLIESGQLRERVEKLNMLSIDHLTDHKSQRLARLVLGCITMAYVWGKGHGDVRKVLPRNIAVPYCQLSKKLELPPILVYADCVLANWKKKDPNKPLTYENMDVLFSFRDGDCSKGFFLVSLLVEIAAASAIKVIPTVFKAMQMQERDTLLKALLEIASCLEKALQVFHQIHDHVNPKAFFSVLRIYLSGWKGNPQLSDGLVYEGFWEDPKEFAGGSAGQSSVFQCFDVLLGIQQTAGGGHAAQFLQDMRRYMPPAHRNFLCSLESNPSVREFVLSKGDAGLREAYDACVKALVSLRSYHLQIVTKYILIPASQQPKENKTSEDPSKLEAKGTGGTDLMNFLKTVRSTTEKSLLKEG
T2 sequence (P14902 whole entry): as above
T1 sequence (P48775 whole entry): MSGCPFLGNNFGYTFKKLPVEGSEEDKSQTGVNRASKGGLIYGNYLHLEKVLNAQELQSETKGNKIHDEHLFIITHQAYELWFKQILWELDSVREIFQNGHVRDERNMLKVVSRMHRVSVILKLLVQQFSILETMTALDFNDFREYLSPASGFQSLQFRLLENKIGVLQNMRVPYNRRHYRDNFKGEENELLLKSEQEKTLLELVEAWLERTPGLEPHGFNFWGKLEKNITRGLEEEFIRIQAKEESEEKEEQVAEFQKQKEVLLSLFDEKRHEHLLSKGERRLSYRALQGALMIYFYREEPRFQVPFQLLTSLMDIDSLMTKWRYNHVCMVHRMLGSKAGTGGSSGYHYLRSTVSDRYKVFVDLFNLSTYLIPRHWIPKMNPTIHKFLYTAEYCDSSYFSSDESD
T4 sequence (P48775 whole entry): as above

For the compound `NC(=O)c1n[nH]nc1-c1ccc(Cl)c(Cl)c1` [Compound 3j], the “% of Enzyme inhibition (TDO)” value came out at 6% in assay [1] (32 nM); 9% in assay [1] (160 nM); 20% in assay [1] (800 nM); 27% in assay [1] (4 µM); 32% in assay [1] (20 µM); 60% in assay [1] (100 µM). The compound further registered an EC50 in assay [2] of 0.053 ± 0.004 µM. Besides, the IC50 in assay [3] is 0.099 ± 0.024 µM; in assay [4] it was 0.069 ± 0.004 µM. Moreover, the “% Of inhibition for IDO1 enzyme” value came to 39% in assay [3] (32 nM); 60% in assay [3] (160 nM); 70% in assay [3] (800 nM); 88% in assay [3] (4 µM); 89% in assay [3] (20 µM); 89% in assay [3] (100 µM). For the same compound, the “% Of inhibition for TDO enzyme” value in assay [5] (32 nM) is on record as 33%; in assay [5] (160 nM), 39%; in assay [5] (800 nM), 42%; in assay [5] (4 µM), 47%; in assay [5] (20 µM), 51%; in assay [5] (100 µM), 51%.
Consider `O=C(O)c1n[nH]nc1-c1ccc(F)c(F)c1` [Compound 4a], for which the “% of Enzyme inhibition (TDO)” value in assay [1] (32 nM) worked out at 4%; in assay [1] (160 nM), 8%; in assay [1] (800 nM), 16%; in assay [1] (4 µM), 18%; in assay [1] (20 µM), 22%; in assay [1] (100 µM) it was 30%. For the same compound, the EC50 in assay [2] worked out at 1.23 ± 0.021 µM. The IC50 in assay [3] turned out to be 8.944 ± 0.087 µM; in assay [4], 17.4 ± 0.918 µM. The “% Of inhibition for IDO1 enzyme” value in assay [3] (32 nM) is on record as 11%; in assay [3] (160 nM) it was 13%; in assay [3] (800 nM), 29%; in assay [3] (4 µM) it was 30%; in assay [3] (20 µM), 57%; in assay [3] (100 µM), 65%. Besides, the “% Of inhibition for TDO enzyme” value in assay [5] (32 nM) is 6%; in assay [5] (160 nM), 18%; in assay [5] (800 nM), 26%; in assay [5] (4 µM), 38%; in assay [5] (20 µM), 41%; in assay [5] (100 µM), 54%.
For `NC(=O)c1n[nH]nc1-c1ccccc1` [Compound 3a, 5-phenyl-2H-1,2,3-triazole-4-carboxamide], the inhibition at 0.032 µM in assay [1] (32 nM) is 5%; in assay [3] (32 nM), 11%; in assay [5] (32 nM), 3%. Further, the inhibition at 0.16 µM came out at 7% in assay [1] (160 nM), 31% in assay [3] (160 nM) and 4% in assay [5] (160 nM). The inhibition at 0.8 µM was found to be 19% in assay [1] (800 nM), 36% in assay [3] (800 nM) and 17% in assay [5] (800 nM). Also, the figures for the inhibition at 4 µM in assay [1] (4 µM), in assay [3] (4 µM) and in assay [5] (4 µM) were 23%, 63% and 22%, respectively. Also, the figures for the inhibition at 20 µM in assay [1] (20 µM), in assay [3] (20 µM) and in assay [5] (20 µM) were 29%, 79% and 25%, respectively. Moreover, the inhibition at 100 µM in assay [1] (100 µM) came to 42%; in assay [3] (100 µM), 80%; in assay [5] (100 µM), 30%. The compound further came in with an EC50 in assay [2] of 1.3 ± 0.068 µM. For the same compound, the figures for the IC50 in assay [3] and in assay [4] were 1.19 ± 0.039 µM and 8.541 ± 0.084 µM, respectively. Further, the “fold stronger IDO1 inhibitory activity than 1a” value in assay [4] amounted to 10 fold.
Regarding `NS(=O)(=O)NCCNC(=O)c1n[nH]nc1-c1ccc(Cl)c(Cl)c1` [Compound 4l, 5-(3,4-dichlorophenyl)-N-(2-(sulfamoylamino)ethyl)-2H-1,2,3-triazole-4-carboxamide], the inhibition at 0.032 µM in assay [1] (32 nM) turned out to be 3%; in assay [3] (32 nM) it was 33%; in assay [5] (32 nM) it was 14%. The inhibition at 0.16 µM in assay [1] (160 nM) came to 10%; in assay [3] (160 nM) it was 57%; in assay [5] (160 nM), 15%. Also, the inhibition at 0.8 µM in assay [1] (800 nM) came out at 11%; in assay [3] (800 nM) it was 65%; in assay [5] (800 nM) it was 22%. Moreover, the inhibition at 4 µM in assay [1] (4 µM) was 19%; in assay [3] (4 µM) it was 88%; in assay [4] (4 μM compound) it was 71 to 86%; in assay [5] (4 µM) it was 29%. Besides, the inhibition at 20 µM in assay [1] (20 µM) is 25%; in assay [3] (20 µM) it was 93%; in assay [5] (20 µM) it was 38%. In addition, the inhibition at 100 µM was 26% in assay [1] (100 µM), 94% in assay [3] (100 µM), 82 to 93% in assay [4] (100 μM compound) and 55% in assay [5] (100 µM). Further, the concentration for a half-maximal effect (EC50) in assay [2] came out at 0.083 ± 0.005 µM. Further, the values for the IC50 in assay [3] and in assay [4] were 0.098 ± 0.007 µM and 0.093 ± 0.009 µM, respectively.
Take `CCOC(=O)c1n[nH]nc1-c1ccccc1` [Compound 2a, ethyl 5-phenyl-2H-1,2,3-triazole-4-carboxylate]: the inhibition at 0.032 µM in assay [1] (32 nM) was 8%; in assay [3] (32 nM) it was 26%; in assay [5] (32 nM), 9%. The inhibition at 0.16 µM in assay [1] (160 nM) was 17%; in assay [3] (160 nM) it was 31%; in assay [5] (160 nM), 39%. Also, the inhibition at 0.8 µM is 19% in assay [1] (800 nM), 35% in assay [3] (800 nM) and 49% in assay [5] (800 nM). Besides, the inhibition at 4 µM in assay [1] (4 µM) was determined as 23%; in assay [3] (4 µM) it was 61%; in assay [5] (4 µM), 68%. Moreover, the inhibition at 20 µM was 27% in assay [1] (20 µM), 76% in assay [3] (20 µM) and 68% in assay [5] (20 µM). Besides, the values for the inhibition at 100 µM in assay [1] (100 µM), in assay [3] (100 µM) and in assay [5] (100 µM) were 34%, 81% and 73%, respectively. In assay [2], this compound returned an EC50 of 3.26 ± 0.045 µM. Further, the IC50 was 2.79 ± 0.066 µM in assay [3] and 14.4 ± 3.36 µM in assay [4]. For the same compound, in assay [4], the “fold stronger IDO1 inhibitory activity than 1a” value was found to be 6 fold.

Source of the values: PMC6895048, “4,5-Disubstituted 1,2,3-triazoles: Effective Inhibition of Indoleamine 2,3-Dioxygenase 1 Enzyme Regulates T cell Activity and Mitigates Tumor Growth” (Scientific Reports, 2019).
